This is an account of results in patent US11161845B2, “Pyrrolopyridine-aniline compounds for treatment of dermal disorders” (Nflection Therapeutics, Inc., priority 2017, dated 2021).

In series [1] the target is T1, hERG channel protein (Homo sapiens, UniProt Q12809).
T1 construct: purchased ThermoFisher PV5365
As to the kind of experiment: hERG screening assay (Predictor hERG FP). The class given is binding. The settings on record: fluorescence polarization tracer displacement. The protocol:
hERG screening was conducted using a procedure similar to the procedure described by Piper et al. (Piper, D. R. et al., Assay Drug Dev. Technol. 2008, 6(2):213-223). The Predictor hERG FP assay (available from ThermoFisher, cat. no. PV5365) is a homogenous, fluorescence polarization biochemical-based format utilizing a membrane fraction containing hERG channel protein (Predictor hERG Membrane) and a high affinity, red-fluorescent hERG channel ligand (Predictor hERG Tracer Red). When the Predictor hERG Tracer ligand is bound to the hERG channel it produces high fluorescence polarization values. Compounds that bind to the hERG channel protein (competitors) displace the Predictor hERG Tracer Red resulting in decreased fluorescence polarization values.
Test compounds were solubilized in DMSO at 100× (or greater) of the desired starting concentration. Screening was conducted with a final concentration of 1% DMSO. For 10-point titrations, 3-fold serial dilutions were performed from the starting concentrations. The assay buffer used was 25 mM HEPES (pH 7.5), 15 mM KCl, 1 mM MgCl2, and 0.05% Pluronic F-127 (available from Sigma-Aldrich).
Predictor hERG membranes were stored as a 2× stock at −80° C. Each membrane lot was titrated to identify the concentration of membranes required to obtain ˜70% bound tracer. Before setting up the assay the membranes were thawed in a 37° C. water bath and stored at room temperature. To avoid light scatter caused by large membrane particulates the membranes were sonicated until a homogeneous solution free of particulates is obtained. […]
384 well untreated low-volume polystyrene microplates (Corning Cat. #4511) were used for the assay. […] The assay plate was read on a fluorescence plate reader (Tecan Safire^2) and the data was analyzed. […]
Assay blank control wells consisted of Predictor hERG Membranes and Assay Buffer. The blank wells were used for background subtraction of raw parallel and perpendicular fluorescence values prior to the calculation of polarization values. […]

Series [2] in a line: S9 stability assay, human liver S9 fraction. The settings on record: for CLint: known MEK compounds; for microsomal CLint at 1 μM / half-life at 1 μM: pH 7.4, Table 1, human liver S9 fraction; for microsomal CLint at 1 μM: read-out: CLint; for half-life at 1 μM: read-out: Liver S9 t1/2. The class given is in vitro ADME. The protocol:
Compounds were assessed for metabolic stability in human skin by assessing their rate of disappearance from human S9 skin fraction. Similarly, compounds were assessed for metabolic stability in human liver by assessing their rate of disappearance from human S9 liver fraction. The protocol below can be used to assess the difference between skin and hepatic metabolism.
The assay was carried out in 96-well microtiter plates at 37° C. Reaction mixtures (25 μL) contained a final concentration of 1 μM test compound, 2 mg/mL liver or skin S9 protein, and 1 mM NADPH in buffer (100 mM potassium phosphate, pH 7.4 buffer with 1 mM EDTA, 3 mM MgCl2). At each of the time points (0, 15, 30, and 60 minutes), 150 μL of quench solution (100% acetonitrile with 0.1% formic acid) with internal standard was transferred to each well. Besides the zero minute controls, mixtures containing the same components except the NADPH were also prepared as the negative control. Verapamil or testosterone was included as a positive control to verify assay performance. Plates were sealed and centrifuged at 4° C. for 15 minutes at 4000 rpm. The supernatant was transferred to fresh plates for LC/MS/MS analysis.
All samples were analyzed on LC/MS/MS using an AB Sciex API 4000 instrument, coupled to a Shimadzu LC-20AD LC Pump system. Analytical samples were separated using a Waters Atlantis T3 dC18 reverse phase HPLC column (20 mm×2.1 mm) at a flow rate of 0.5 mL/min. The mobile phase consisted of 0.1% formic acid in water (solvent A) and 0.1% formic acid in 100% acetonitrile (solvent B).
The extent of metabolism was calculated as the disappearance of the test compound, compared to the 0-min control reaction incubations. Initial rates were calculated for the compound concentration and used to determine t1/2 values and subsequently, the intrinsic clearance, CLint=(0.693) (1/t1/2 (min)) (mL incubation/mg of S9 protein).

Series [3] has as its system P-gp (human MDR1). As to the kind of experiment: in vitro. The settings on record: dog; for Papp A→B at 1 h, 5 μM / Papp B→A at 1 h, 5 μM: MDCK-MDR1, Papp. The protocol:
(§1) MDCK-MDR1 is a stable-transfected cell line originating from MDCK cells, with over-expression of human MDR1 gene. The cell line is widely used for the identification and characterization of P-gp substrates and inhibitors.
(§2) MDCK-MDR1 cells were plated into 96-well Millipore Millicell-96 plates at 7,500 cells/75 μL/well and incubated for three days at 37° C. with 5% CO2. Cells were washed with Hank's Balanced Salt Solution (HBSS) with 5 mM HEPES for 30 minutes before starting the experiment. Test compound solutions were prepared by diluting DMSO stock into HBSS buffer, resulting in a final DMSO concentration of 0.1%. Prior to the experiment, cell monolayer integrity was verified by […] electrical resistance (TEER). Transport experiment was initiated by adding test compounds to the apical (75 μL) or basal (250 μL) side. Transport plates were incubated at 37° C. in a humidified incubator with 5% CO2. Samples were taken from the donor and acceptor compartments after one hour and analyzed by liquid chromatography with tandem mass spectrometry (LC/MS/MS).
(§3) Digoxin was used as reference control.
(§4) Apparent permeability (Papp) values were calculated using the following equation: Papp=(dQ/dt)/A/Co; where dQ/dt is the initial rate of amount of test compound transported across cell monolayer, A is the surface area of the filter membrane, and Co is the initial concentration of the test compound, calculated for each direction using a 4-point calibration curve by LC/MS/MS.
(§5) Net flux ratio between the two directional transports was calculated by the following equation: Ratio=Papp, B-A/Papp, A-B; where Papp, B-A and Papp, A-B represent the apparent permeability of test compound from the basal-to-apical and apical-to-basal side of the cellular monolayer, respectively.
(§6) Recovery was calculated based on the compound concentration at the end of the experiment, compared to that at the beginning of the experiment, adjusted for volumes.
(§7) A net flux ratio greater than two was considered a positive result for substrate determination. […] If the addition of a known P-gp inhibitor to the experiment reduces the net flux ratio by a significant amount (more than 50% reduction or reduces the ratio to close to unity), it is likely that the compound tested is a P-gp substrate.

Series [4] relates to MDCK-MDR1 cells. The series is described as follows: in vitro. The note with it: dog, MDCK-MDR1, 1 h, 5 μM. As for the experimental part: as §1, §2, §3, §4, §5, §6, §7
The conditions of series [5]: clinically tested; cited from earlier work.

The structures appear in SMILES notation.

T1 sequence (Q12809 whole entry): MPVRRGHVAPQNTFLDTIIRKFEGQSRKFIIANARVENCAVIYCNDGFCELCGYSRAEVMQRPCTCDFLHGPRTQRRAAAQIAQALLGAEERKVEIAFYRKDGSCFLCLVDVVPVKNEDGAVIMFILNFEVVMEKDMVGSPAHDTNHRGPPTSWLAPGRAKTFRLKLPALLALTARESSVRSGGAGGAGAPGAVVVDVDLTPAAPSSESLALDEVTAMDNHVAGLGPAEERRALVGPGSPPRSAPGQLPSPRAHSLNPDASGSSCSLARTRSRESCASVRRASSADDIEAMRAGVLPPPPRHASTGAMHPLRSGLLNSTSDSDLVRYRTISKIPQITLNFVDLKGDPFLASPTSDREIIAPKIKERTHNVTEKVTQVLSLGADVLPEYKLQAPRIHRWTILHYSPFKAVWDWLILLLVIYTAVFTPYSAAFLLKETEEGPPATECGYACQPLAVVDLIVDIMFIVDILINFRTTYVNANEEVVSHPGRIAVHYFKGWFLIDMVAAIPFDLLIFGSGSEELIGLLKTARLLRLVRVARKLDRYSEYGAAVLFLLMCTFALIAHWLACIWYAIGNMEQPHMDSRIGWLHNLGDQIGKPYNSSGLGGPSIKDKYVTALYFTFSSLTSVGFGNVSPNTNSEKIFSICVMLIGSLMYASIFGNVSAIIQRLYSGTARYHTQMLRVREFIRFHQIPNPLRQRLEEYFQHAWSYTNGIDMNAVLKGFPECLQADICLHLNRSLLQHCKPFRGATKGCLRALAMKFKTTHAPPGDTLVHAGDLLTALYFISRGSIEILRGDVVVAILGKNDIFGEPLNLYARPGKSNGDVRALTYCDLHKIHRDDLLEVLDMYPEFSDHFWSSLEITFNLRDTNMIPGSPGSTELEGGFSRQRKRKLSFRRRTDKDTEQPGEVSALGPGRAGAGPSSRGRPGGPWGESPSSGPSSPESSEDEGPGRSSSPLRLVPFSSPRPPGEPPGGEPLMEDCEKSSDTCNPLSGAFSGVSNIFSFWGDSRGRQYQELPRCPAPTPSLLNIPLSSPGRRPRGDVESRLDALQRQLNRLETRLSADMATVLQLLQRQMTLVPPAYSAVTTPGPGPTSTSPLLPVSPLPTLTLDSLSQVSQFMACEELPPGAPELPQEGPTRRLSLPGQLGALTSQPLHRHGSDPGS

For orientation: IC50 means the concentration that gives 50% inhibition. By efflux ratio is commonly meant the permeability from basolateral to apical divided by that in the opposite direction, in the common usage. The Papp A→B is the apparent permeability from the apical to the basolateral side of a cell layer. Low values mean poor permeation, high ones ready permeation. By Papp B→A is commonly meant the apparent permeability from the basolateral to the apical side of a cell layer. On to `Cn1c(C(=O)NOCCO)c(Nc2ccc(I)cc2F)c2cnccc21` [Example C8], for which the IC50 in series [1] was 1.8 µM. In series [2], the CLint is on record as 5.27 μL/min/mg protein, the microsomal CLint at 1 μM came out at 5.27 µL/min/mg and the half-life at 1 μM stood at 1.1 h. In addition, in series [3] (MDCK-MDR1), the efflux ratio at 1 h, 5 μM turned out to be 3.4. The same molecule registered a Papp A→B at 1 h, 5 μM in series [3] (A-B Mean) of 12.8 ×10⁻⁶ cm/s. In series [3] (A-B Value), this molecule gave a Papp A→B at 1 h, 5 μM of 12.7 ×10⁻⁶ cm/s. This molecule also came in with a Papp B→A at 1 h, 5 μM in series [3] (B-A Mean) of 43.5 ×10⁻⁶ cm/s. The Papp B→A at 1 h, 5 μM in series [3] (B-A Value) amounted to 43.2 ×10⁻⁶ cm/s. For the same molecule, in series [4], the “Papp, A-B Value” stood at 12.9 ×10⁻⁶ cm/s; the “Papp, B-A Value” came to 43.7 ×10⁻⁶ cm/s; the “Recover Rate” value worked out at 99%.
For the molecule `O=C(NOC[C@H](O)CO)c1c(Nc2ccc(I)cc2F)sc2ncccc12` [Example C9], the IC50 in series [1] was 7.3 µM. Moreover, in series [2], the CLint is on record as 2.20 μL/min/mg protein, the microsomal CLint at 1 μM was found to be 2.2 µL/min/mg and the half-life at 1 μM worked out at 2.63 h.
Consider `O=C(NOC[C@H](O)CO)c1ccc(F)c(F)c1Nc1ccc(I)cc1F` [PD0325901], for which the side effects result in series [5] is “neurological side effects associated with ataxia, confusion, and syncope”.
